{
  "source": "paper PMC10046369",
  "about": "“Low-Affinity/High-Selectivity Dopamine Transport Inhibition Sufficient to Rescue Cognitive Functions in the Aging Rat” (Biomolecules, 2023)",
  "assay_in_all_cases": "biochemical",
  "set-up_in_all_cases": "KINOMEscan competition binding panel, per cent of control",
  "settings_in_all_cases": "read-out: %Ctrl @ 2800nM",
  "key": {"p38-beta": {"target": "T1, p38-beta (Homo sapiens, UniProt Q15759)", "T1 construct": "gene MAPK11", "in_short": "(§1)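 Values are expressed as percent of control, calculated as ((test − positive control)/(negative control − positive control)) × 100, so lower numbers mean stronger hits. Binding was measured by KINOMEscan competition assay in a 450-kinase human panel including disease mutants, using the contractor's validated protocol.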"}, "CDK8": {"target": "CDK8 (Homo sapiens, UniProt P49336)", "sequence (P49336 whole entry)": "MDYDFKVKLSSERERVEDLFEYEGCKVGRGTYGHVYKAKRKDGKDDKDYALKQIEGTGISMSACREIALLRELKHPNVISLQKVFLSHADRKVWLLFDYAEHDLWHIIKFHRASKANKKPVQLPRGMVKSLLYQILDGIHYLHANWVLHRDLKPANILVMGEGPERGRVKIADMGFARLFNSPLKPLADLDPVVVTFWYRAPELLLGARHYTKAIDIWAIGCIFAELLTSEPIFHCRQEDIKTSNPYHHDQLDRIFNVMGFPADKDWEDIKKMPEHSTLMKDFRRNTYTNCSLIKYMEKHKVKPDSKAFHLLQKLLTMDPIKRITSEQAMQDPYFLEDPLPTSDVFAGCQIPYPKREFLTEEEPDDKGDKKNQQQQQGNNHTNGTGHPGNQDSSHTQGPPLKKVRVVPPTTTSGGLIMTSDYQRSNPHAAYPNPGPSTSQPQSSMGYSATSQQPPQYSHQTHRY", "in_short": "as §1"}, "[1]": {"target": "T2, RPS6KA4(Kin.Dom.2-C-terminal) (Homo sapiens, UniProt O75676)", "T2 construct": "Kin.Dom.2-C-terminal", "in_short": "as §1"}, "MET(Y1235D)": {"target": "MET(Y1235D) (Homo sapiens, UniProt P08581, Y1235D)", "sequence (P08581 whole entry Y1235D)": "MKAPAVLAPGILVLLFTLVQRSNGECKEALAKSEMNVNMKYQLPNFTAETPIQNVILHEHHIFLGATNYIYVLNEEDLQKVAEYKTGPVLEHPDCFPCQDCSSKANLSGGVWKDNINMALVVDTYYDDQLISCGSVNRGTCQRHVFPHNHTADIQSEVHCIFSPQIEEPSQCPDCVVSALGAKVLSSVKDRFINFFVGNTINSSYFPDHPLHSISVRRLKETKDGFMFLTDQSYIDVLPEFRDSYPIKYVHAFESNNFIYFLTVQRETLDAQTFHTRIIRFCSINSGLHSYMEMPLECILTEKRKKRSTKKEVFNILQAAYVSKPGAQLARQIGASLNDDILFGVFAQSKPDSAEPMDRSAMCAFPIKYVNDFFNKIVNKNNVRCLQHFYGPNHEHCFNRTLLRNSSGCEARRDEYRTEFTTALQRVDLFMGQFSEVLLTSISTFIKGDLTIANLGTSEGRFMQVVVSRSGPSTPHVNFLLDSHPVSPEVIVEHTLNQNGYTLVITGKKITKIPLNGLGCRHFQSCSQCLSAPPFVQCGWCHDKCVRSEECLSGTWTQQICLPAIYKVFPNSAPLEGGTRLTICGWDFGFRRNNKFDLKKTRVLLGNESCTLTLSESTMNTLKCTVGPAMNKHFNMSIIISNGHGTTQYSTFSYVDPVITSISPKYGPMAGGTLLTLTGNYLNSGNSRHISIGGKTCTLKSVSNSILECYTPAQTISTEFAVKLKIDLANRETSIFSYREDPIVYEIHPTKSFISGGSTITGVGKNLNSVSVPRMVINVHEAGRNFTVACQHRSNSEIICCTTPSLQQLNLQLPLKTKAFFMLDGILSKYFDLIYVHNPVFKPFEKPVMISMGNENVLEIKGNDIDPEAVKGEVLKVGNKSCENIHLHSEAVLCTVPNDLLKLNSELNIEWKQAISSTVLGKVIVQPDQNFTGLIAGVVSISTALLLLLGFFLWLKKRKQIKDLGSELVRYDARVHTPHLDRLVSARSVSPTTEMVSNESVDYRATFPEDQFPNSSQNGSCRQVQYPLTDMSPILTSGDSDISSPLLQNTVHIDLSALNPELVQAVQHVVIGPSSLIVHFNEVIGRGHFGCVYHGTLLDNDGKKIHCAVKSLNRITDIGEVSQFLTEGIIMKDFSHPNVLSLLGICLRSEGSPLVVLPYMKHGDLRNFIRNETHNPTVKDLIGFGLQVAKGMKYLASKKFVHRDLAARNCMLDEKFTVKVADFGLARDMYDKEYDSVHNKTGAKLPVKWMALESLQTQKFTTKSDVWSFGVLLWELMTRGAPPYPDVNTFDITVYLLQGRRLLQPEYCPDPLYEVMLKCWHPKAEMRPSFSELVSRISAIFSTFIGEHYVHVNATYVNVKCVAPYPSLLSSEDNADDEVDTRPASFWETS", "in_short": "as §1"}, "STK39": {"target": "STK39 (Homo sapiens, UniProt Q9UEW8)", "in_short": "as §1"}, "MST1R": {"target": "MST1R (Homo sapiens, UniProt Q04912)", "in_short": "as §1"}, "EGFR(L861Q)": {"target": "EGFR(L861Q) (Homo sapiens, UniProt P00533, L861Q)", "sequence (P00533 whole entry L861Q)": "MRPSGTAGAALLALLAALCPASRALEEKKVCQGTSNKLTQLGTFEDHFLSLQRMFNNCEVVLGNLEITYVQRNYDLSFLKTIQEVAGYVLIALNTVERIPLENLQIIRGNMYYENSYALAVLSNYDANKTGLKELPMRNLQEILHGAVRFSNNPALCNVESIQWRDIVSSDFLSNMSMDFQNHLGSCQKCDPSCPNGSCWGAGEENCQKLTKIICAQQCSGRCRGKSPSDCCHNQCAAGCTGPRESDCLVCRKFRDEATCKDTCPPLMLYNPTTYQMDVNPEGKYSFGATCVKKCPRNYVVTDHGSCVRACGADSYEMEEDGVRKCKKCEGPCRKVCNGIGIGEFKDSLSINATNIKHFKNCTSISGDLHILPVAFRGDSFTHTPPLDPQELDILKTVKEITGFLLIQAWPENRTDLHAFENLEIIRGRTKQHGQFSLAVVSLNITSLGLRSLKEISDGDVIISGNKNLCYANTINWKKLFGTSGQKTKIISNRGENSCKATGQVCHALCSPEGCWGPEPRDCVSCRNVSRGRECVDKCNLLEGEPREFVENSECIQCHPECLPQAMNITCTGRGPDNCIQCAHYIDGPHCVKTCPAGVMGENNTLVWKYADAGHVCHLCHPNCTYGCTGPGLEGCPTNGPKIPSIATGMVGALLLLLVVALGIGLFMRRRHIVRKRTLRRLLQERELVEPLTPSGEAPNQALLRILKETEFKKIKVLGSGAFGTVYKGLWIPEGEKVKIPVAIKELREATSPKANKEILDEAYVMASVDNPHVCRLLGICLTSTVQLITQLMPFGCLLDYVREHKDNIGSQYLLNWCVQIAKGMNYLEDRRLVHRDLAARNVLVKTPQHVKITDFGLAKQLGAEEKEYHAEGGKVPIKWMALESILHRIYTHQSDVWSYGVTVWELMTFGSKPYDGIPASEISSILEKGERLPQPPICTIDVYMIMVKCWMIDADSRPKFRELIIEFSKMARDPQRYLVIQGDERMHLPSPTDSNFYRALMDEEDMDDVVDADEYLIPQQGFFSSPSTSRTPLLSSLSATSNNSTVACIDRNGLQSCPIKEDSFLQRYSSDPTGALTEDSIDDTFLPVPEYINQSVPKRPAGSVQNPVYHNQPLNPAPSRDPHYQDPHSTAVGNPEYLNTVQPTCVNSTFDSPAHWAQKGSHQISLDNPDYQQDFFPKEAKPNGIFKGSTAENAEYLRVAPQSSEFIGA", "in_short": "as §1"}, "MAP3K4": {"target": "MAP3K4 (Homo sapiens, UniProt Q9Y6R4)", "in_short": "as §1"}, "PIK3CA(E542K)": {"target": "PIK3CA(E542K) (Homo sapiens, UniProt P42336, E542K)", "in_short": "as §1"}, "EPHA5": {"target": "EPHA5 (Homo sapiens, UniProt P54756)", "in_short": "as §1"}, "CSNK1E": {"target": "CSNK1E (Homo sapiens, UniProt P49674)", "sequence (P49674 whole entry)": "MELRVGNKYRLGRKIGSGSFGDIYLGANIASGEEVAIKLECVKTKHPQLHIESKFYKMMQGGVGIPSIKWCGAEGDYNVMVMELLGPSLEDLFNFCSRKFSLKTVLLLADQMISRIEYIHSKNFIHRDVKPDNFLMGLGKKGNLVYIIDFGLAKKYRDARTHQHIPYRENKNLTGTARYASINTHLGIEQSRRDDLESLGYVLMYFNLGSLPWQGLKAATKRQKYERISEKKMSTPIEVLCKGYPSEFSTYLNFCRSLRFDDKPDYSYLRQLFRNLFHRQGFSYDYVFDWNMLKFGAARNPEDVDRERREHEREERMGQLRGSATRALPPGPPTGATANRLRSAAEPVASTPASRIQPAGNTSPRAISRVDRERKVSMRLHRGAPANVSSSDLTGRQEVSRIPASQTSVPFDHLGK", "in_short": "as §1"}, "PCTK2": {"target": "T3, PCTK2 (Homo sapiens, UniProt Q00537)", "T3 construct": "gene CDK17", "in_short": "as §1"}, "CSNK2A1": {"target": "CSNK2A1 (Homo sapiens, UniProt P68400)", "in_short": "as §1"}, "PIP5K2B": {"target": "T4, PIP5K2B (Homo sapiens, UniProt P78356)", "T4 construct": "gene PIP4K2B", "in_short": "as §1"}, "PIP5K2C": {"target": "T5, PIP5K2C (Homo sapiens, UniProt Q8TBX8)", "T5 construct": "gene PIP4K2C", "in_short": "as §1"}, "QSK": {"target": "T6, QSK (Homo sapiens, UniProt Q9Y2K2)", "T6 construct": "gene SIK3", "in_short": "as §1"}, "FER": {"target": "FER (Homo sapiens, UniProt P16591)", "sequence (P16591 whole entry)": "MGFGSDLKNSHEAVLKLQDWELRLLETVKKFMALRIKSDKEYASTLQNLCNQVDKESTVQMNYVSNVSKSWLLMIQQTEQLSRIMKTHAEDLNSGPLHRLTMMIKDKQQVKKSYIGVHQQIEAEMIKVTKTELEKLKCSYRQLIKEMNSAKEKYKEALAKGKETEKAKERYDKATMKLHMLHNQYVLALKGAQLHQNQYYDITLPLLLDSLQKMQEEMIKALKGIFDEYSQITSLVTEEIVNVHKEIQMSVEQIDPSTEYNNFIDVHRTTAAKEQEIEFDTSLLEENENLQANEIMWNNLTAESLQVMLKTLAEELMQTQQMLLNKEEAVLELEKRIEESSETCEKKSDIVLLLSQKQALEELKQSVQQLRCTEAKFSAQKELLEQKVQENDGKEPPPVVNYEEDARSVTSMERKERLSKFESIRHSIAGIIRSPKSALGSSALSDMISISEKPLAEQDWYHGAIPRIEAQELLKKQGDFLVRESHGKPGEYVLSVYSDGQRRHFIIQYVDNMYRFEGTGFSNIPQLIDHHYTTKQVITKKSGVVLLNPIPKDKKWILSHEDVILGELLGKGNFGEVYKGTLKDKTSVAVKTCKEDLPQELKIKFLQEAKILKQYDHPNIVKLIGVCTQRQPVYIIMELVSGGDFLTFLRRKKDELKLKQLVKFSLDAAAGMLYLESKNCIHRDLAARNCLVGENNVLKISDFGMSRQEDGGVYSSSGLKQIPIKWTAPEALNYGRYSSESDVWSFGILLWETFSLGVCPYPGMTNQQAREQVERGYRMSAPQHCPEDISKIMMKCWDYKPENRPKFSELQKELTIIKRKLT", "in_short": "as §1"}, "DCAMKL1": {"target": "T7, DCAMKL1 (Homo sapiens, UniProt O15075)", "T7 construct": "gene DCLK1", "in_short": "as §1"}, "MKNK1": {"target": "MKNK1 (Homo sapiens, UniProt Q9BUB5)", "sequence (Q9BUB5 whole entry)": "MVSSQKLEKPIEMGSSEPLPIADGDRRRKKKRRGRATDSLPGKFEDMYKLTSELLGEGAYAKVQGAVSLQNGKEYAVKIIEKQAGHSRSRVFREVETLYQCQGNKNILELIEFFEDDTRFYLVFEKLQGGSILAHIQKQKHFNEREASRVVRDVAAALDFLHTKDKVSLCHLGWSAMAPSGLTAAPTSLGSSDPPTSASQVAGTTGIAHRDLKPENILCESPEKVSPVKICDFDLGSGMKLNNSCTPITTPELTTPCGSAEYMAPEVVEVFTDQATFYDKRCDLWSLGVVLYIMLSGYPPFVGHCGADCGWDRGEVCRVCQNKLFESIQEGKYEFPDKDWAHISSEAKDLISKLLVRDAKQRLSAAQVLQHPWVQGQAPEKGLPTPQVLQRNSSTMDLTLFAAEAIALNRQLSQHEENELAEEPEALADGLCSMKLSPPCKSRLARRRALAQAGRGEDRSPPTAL", "in_short": "as §1"}, "PRKD2": {"target": "PRKD2 (Homo sapiens, UniProt Q9BZL6)", "in_short": "as §1"}, "AURKC": {"target": "AURKC (Homo sapiens, UniProt Q9UQB9)", "sequence (Q9UQB9 whole entry)": "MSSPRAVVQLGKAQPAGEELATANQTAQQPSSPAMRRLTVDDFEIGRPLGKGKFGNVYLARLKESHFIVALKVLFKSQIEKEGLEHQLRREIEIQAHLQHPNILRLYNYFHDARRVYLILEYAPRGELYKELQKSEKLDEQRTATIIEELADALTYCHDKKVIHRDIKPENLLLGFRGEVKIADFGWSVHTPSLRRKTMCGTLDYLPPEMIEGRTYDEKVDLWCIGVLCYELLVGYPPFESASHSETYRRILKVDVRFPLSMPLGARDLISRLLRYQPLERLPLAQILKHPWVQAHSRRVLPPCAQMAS", "in_short": "as §1"}, "CDC2L2": {"target": "T8, CDC2L2 (Homo sapiens, UniProt Q9UQ88)", "T8 construct": "gene CDK11A", "in_short": "as §1"}, "PRKX": {"target": "PRKX (Homo sapiens, UniProt P51817)", "in_short": "as §1"}, "PIK3CA": {"target": "PIK3CA (Homo sapiens, UniProt P42336)", "in_short": "as §1"}, "FLT3(N841I)": {"target": "FLT3(N841I) (Homo sapiens, UniProt P36888, N841I)", "in_short": "as §1"}, "BRSK1": {"target": "BRSK1 (Homo sapiens, UniProt Q8TDC3)", "in_short": "as §1"}},
  "data": [
    {"compound": "[O-][S@@+](Cc1cncs1)C(c1ccccc1)c1ccccc1", "note": "[S-CE-123, (S)-5-((Benzhydrylsulfinyl)Methyl)Thiazole]", "values": [
      {"measurement": "remaining binding at 2.8 µM", "setting": "p38-beta", "value": 94, "unit": "%"},
      {"measurement": "remaining binding at 2.8 µM", "setting": "CDK8", "value": 96, "unit": "%"},
      {"measurement": "remaining binding at 2.8 µM", "setting": "[1]", "value": 99, "unit": "%"},
      {"measurement": "remaining binding at 2.8 µM", "setting": "MET(Y1235D)", "value": 99, "unit": "%"},
      {"measurement": "remaining binding at 2.8 µM", "setting": "STK39", "value": 100, "unit": "%"},
      {"measurement": "remaining binding at 2.8 µM", "setting": "MST1R", "value": 93, "unit": "%"},
      {"measurement": "remaining binding at 2.8 µM", "setting": "EGFR(L861Q)", "value": 98, "unit": "%"},
      {"measurement": "remaining binding at 2.8 µM", "setting": "MAP3K4", "value": 84, "unit": "%"},
      {"measurement": "remaining binding at 2.8 µM", "setting": "PIK3CA(E542K)", "value": 88, "unit": "%"},
      {"measurement": "remaining binding at 2.8 µM", "setting": "EPHA5", "value": 86, "unit": "%"},
      {"measurement": "remaining binding at 2.8 µM", "setting": "CSNK1E", "value": 96, "unit": "%"},
      {"measurement": "remaining binding at 2.8 µM", "setting": "PCTK2", "value": 93, "unit": "%"},
      {"measurement": "remaining binding at 2.8 µM", "setting": "CSNK2A1", "value": 88, "unit": "%"},
      {"measurement": "remaining binding at 2.8 µM", "setting": "PIP5K2B", "value": 100, "unit": "%"},
      {"measurement": "remaining binding at 2.8 µM", "setting": "PIP5K2C", "value": 100, "unit": "%"},
      {"measurement": "remaining binding at 2.8 µM", "setting": "QSK", "value": 93, "unit": "%"},
      {"measurement": "remaining binding at 2.8 µM", "setting": "FER", "value": 100, "unit": "%"},
      {"measurement": "remaining binding at 2.8 µM", "setting": "DCAMKL1", "value": 100, "unit": "%"},
      {"measurement": "remaining binding at 2.8 µM", "setting": "MKNK1", "value": 96, "unit": "%"},
      {"measurement": "remaining binding at 2.8 µM", "setting": "PRKD2", "value": 98, "unit": "%"},
      {"measurement": "remaining binding at 2.8 µM", "setting": "AURKC", "value": 100, "unit": "%"},
      {"measurement": "remaining binding at 2.8 µM", "setting": "CDC2L2", "value": 98, "unit": "%"},
      {"measurement": "remaining binding at 2.8 µM", "setting": "PRKX", "value": 100, "unit": "%"},
      {"measurement": "remaining binding at 2.8 µM", "setting": "PIK3CA", "value": 80, "unit": "%"},
      {"measurement": "remaining binding at 2.8 µM", "setting": "FLT3(N841I)", "value": 91, "unit": "%"},
      {"measurement": "remaining binding at 2.8 µM", "setting": "BRSK1", "value": 100, "unit": "%"}
    ]}
  ]
}
